Assay results published in ChEMBL document CHEMBL1697821, “Development of a phospholipidosis database and predictive quantitative structure-activity relationship (QSAR) models” (Toxicol Mech Methods, 2008).

System: Phospholipidosis
Test: Literature-mined public compounds from Kruhlak et al phospholipidosis modelling dataset

SMILES | Phospholipidosis
CC(C)Nc1cccnc1N1CCN(C(=O)c2cc3cc(NS(C)(=O)=O)ccc3[nH]2)CC1 [DELAVIRDINE] | Negative: based on the absence of positive reported data from WMDD
NS(=O)(=O)c1cc2c(cc1Cl)NC(C(Cl)Cl)NS2(=O)=O (stereo not drawn) [TRICHLORMETHIAZIDE] | Negative: based on the absence of positive reported data from WMDD
CN1C(=O)CN=C(c2ccccc2)c2cc([N+](=O)[O-])ccc21 [NIMETAZEPAM] | Negative: based on the absence of positive reported data from WMDD
Nc1nc(F)nc2c1ncn2[C@@H]1O[C@H](COP(=O)(O)O)[C@@H](O)[C@@H]1O [FLUDARABINE PHOSPHATE] | Negative: based on the absence of positive reported data from WMDD
CCCCC[C@H](O)/C=C/[C@@H]1[C@@H](C/C=C\CCCC(=O)O)[C@@H](O)C[C@H]1O [DINOPROST] | Negative: based on the absence of positive reported data from WMDD
CCCCCCCCCCC(=O)O[C@H]1CC[C@H]2[C@@H]3CCc4cc(O)ccc4[C@H]3CC[C@]12C [ESTRADIOL UNDECYLATE] | Negative: based on the absence of positive reported data from WMDD
NC[C@@H]1CC[C@@H](N)[C@@H](O[C@H]2[C@H](O)[C@@H](O[C@H]3O[C@H](CO)[C@@H](O)[C@H](N)[C@H]3O)[C@H](N)C[C@@H]2N)O1 [DIBEKACIN] | Positive: strong inducer confirmed by electron microscopy
CCCCC[C@H](O)/C=C/[C@@H]1[C@H]2C/C(=C/CCCC(=O)O)O[C@H]2C[C@H]1O [EPOPROSTENOL] | Negative: based on the absence of positive reported data from WMDD
